# Laboratory results: patent US12678431B2, “Pharmaceutical composition for treatment of dementia and cerebrovascular disorders” (FUSO PHARMACEUTICAL INDUSTRIES, LTD., priority 2019, dated 2026)
# Tests used:
# Assay type in all cases: in vivo
# [1] = system: matrix metalloproteinase 9 (MMP-9); assay: Test for suppression of blood-brain barrier disruption (western blotting, MMP-9 antibody) in vascular dementia disease model mouse; settings: BCAS model mouse; 100 μmol/kg oral or intraperitoneal, three times/week; hippocampus and striatal tissue, 7 days after the surgery; FIG. 2
# Description: (§1) Firstly, according to a general preparation method for vascular dementia disease model mouse (for example, Shibata M, Ohtani R, Ihara M, et al., Stroke 35: 2598-2603, 2004; or Ihara M, Taguchi A, Maki T, et al., Methods Mol Biol 1135: 95-102, 2014), the mouse was equipped with a 0.18 mm microcoil into a right common carotid artery of the mice and a 0.16 mm microcoil into a left common carotid artery thereof.
# Next, a vascular dementia disease model mouse (hereinafter sometimes referred to as Bilateral common artery stenosis (BCAS) model) was prepared according to the below-mentioned schedule as shown in FIG. 1. […]
# The vascular dementia disease model mouse which was prepared in the Test Example 1 was euthanized on 7 days after the surgery. […] The homogenate was crushed with ultrasonic while cooling on ice, and after centrifuging, the supernatant was subjected to a protein quantification by a bicinchoninic acid (BCA) method. Thereafter, the prepared protein sample was evaluated on an effect on suppression of blood-brain barrier disruption according to a western blotting method using antibody against matrix metalloproteinase 9 (MMP-9) similarly to a generally known method. […]
# [2] = system: vascular dementia disease model mouse (BCAS model); assay: Test for influence on cerebral blood flow (Laser-Doppler blood flow meter) in vascular dementia disease model mice; settings: 50, 75 or 100 μmol/kg oral or intraperitoneal, three times/week, measured up to 14 days after surgery, FIG. 5
# Description: as §1
# (§2) Next, a vascular dementia disease model mouse (hereinafter sometimes referred to as Bilateral common artery stenosis (BCAS) model) was prepared according to the below-mentioned schedule as shown in FIG. 1.
# In the vascular dementia disease model mice (N (number of animals)=6 to 8 animals) that were prepared in the Test Example 1, a cerebral blood flow of a boundary region (blegma) between middle cerebral artery and anterior cerebral artery was measured at immediately before ischemic surgery, immediately after ischemic surgery, after 1 day, after 4 days, after 7 days or after 14 days. A Laser-Doppler blood flow meter was fixed on a skull, and a cerebral blood flow was measured, and the cerebral blood flow was evaluated as a ratio thereof to cerebral blood flow immediately before ischemic surgery. […]
# [3] = system: myelin basic protein (MBP); assay: Test for suppression against reduction of a myelin basic protein (MBP), brain section immunostaining in vascular dementia disease model mouse; settings: BCAS model mouse; 100 μmol/kg oral or intraperitoneal, three times/week; brain frozen section, 28 days after the surgery; FIG. 3
# Description: as §1, §2
# Ethoxyquin or methyldopa were administered by an oral administration or an intraperitoneal administration in a dose of 100 μmol/kg by a ratio of three times/week until the completion of the test (for example, for 1 to 4 weeks). Here the test results in the case where a healthy mouse as control was used is shown.
# The vascular dementia disease model mouse which was prepared in the Test Example 1 was euthanized on 28 days after the surgery. The frozen section of the brain of the mice (N (number of animal)=6 to 8 animals) were immobilized in cold acetone for 10 minutes, and washed with PBS for 5 minutes (× three times). […]
# [4] = system: vascular dementia disease model mouse (BCAS model); assay: Novel object recognition test in vascular dementia disease model mouse; settings: 100 μmol/kg oral or intraperitoneal, three times/week, FIG. 4
# Description: as §1, §2
# Ethoxyquin or methyldopa were administered by an oral administration or an intraperitoneal administration in a dose of 100 μmol/kg by a ratio of three times/week until the completion of the test (for example, for 1 to 4 weeks). […]
# A novel object recognition test was conducted by utilizing rodent's character of seeking novelty. […] After a certain times were passed, one of the object was changed by a novel object, and the animals were placed in the same observation box again, and the time exploring an object was measured for 10 minutes (Test trial). The time exploring a novel object or the time exploring the learned object were defined as “N” or “F” respectively, and were calculated by the following equation: the Exploration time=N+F, and the Discrimination Index=(N−F)/(N+F). […]
Structure (SMILES),effect on suppressing a blood-brain barrier disruption (MMP-9 western blotting) [1],influence on cerebral blood flow (ratio to flow immediately before ischemic surgery) [2],effect on suppression of the reduction of myelin basic protein [3],"novel object recognition (cognitive dysfunction, long-term spatial memory; Discrimination Index) [4]"
"CCOc1ccc2c(c1)C(C)=CC(C)(C)N2 [Compound 1, 6-Ethoxy-2,2,4-trimethyl-1,2-dihydroquinoline]",suggested an effect on suppressing a blood-brain barrier disruption,do not affect any cerebral blood flow,suggested an effect on a suppression of the reduction of myelin basic protein,showed an improved cognitive dysfunction in a long-term spatial memory
"C[C@](N)(Cc1ccc(O)c(O)c1)C(=O)O [Compound 2, Methyldopa sesquihydrates]",suggested an effect on suppressing a blood-brain barrier disruption,do not affect any cerebral blood flow,suggested an effect on a suppression of the reduction of myelin basic protein,showed an improved cognitive dysfunction in a long-term spatial memory
